Data set [1] has as its target GLP-1 receptor CHO-K1 cells (Homo sapiens (Human), UniProt P43220). Description: cAMP assay (HTRF, CISBIO kit). It counts as cell-based. The conditions noted are these: for Emax: CHO-K1, cAMP stimulation ratio, Exendin-4 = 100%. The method, then:
A cAMP assay test was performed according to a method optimized based on a protocol provided by a cAMP assay kit manufacturer (CISBIO). […] The cells were incubated at room temperature for 7 minutes. A cAMP-d2 conjugate reagent was prepared by mixing a cAMP conjugate with an elution buffer at a ratio of 1:4. An anti-cAMP cryptate conjugate reagent was prepared by mixing a […] with an elution buffer at a ratio of 1:4. Then, […] of the cAMP-d2 conjugate reagent was added to each of the wells. Subsequently, […] of the anti-cAMP cryptate conjugate reagent was added to each of the wells.
(Cyclic AMP is a second messenger, typically raised through Gs and lowered through Gi signalling.)

Data set [2] concerns the target hERG (human ether-a-go-go related gene) potassium channel (Homo sapiens (Human), UniProt Q12809). Description: hERG analysis, automatic whole-cell patch clamp (QPatch 48 HT). It counts as cell-based. Particulars: hERG-expressing CHO-K1 cell line, 1-100 μM, room temperature. On the procedure:
The inhibition of activity of hERG (human ether-a-go-go related gene) potassium channel by the compounds was evaluated by using an automatic whole-cell patch clamp system (QPatch 48 HT, Sophion Bioscience) that can directly measure the flow of ions through the potassium channel in cells. A CHO-K1 cell line stably expressing human hERG cDNA (Kv11.1, KCNH2) was used. The composition of the intracellular solution (mM) used for the analysis is 70 KF, 60 KCl, 15 NaCl, 5 HEPES, 5 EGTA, 5 MgATP, pH 7.3 by KOH.
The hERG-expressing CHO-K1 cell line was treated with each compound at five concentrations (1, 3, 10, 30 and 100 μM), and incubated with each test concentration for 5 minutes in duplicate. All experiments were conducted at room temperature. Change in current amplitude through the hERG channel was recorded every 8 seconds.
Stock solution for each compound is prepared in DMSO at 300× the final assay concentrations, and stored at −20° C. until the day of assay. On the day of the experiment, the stock was diluted into an extracellular solution to make final treatment concentration.
The change in hERG current before and after treatment with the test substance was recorded using the automatic whole cell patch clamp, and the hERG inhibition percentage (%) was calculated based on the control group.
In this calculation, an inhibitor dose-response curve analyzed by using a curve fitting program that uses a 4-parameter logistic dose response equation was used.
(In general: The hERG channel carries a current that helps repolarise heart muscle cells.)

The nature of data set [3]: Intravenous glucose tolerance test (ivGTT) via oral administration, plasma insulin ELISA. The conditions noted are these: test substance 50 mg/5 mL/kg orally 60 minutes before glucose […] iv, maximum plasma insulin. In kind it is in vivo. The method, then:
Before performing the ivGTT, the monkeys to be used in the test were fasted for 16 hours. After the fasting, fasting blood sugar was measured on the day of the test, and then the monkeys were grouped to minimize blood sugar deviation. On 60 minutes before glucose administration (−60 minutes), each of the monkeys was fixed on a correction chair, and the test substance (50 mg/5 mL/kg) was administered orally using a catheter for oral administration. The monkey fixed on the correction chair was anesthetized, and glucose (0.25 g/kg, 50% dextrose solution 0.5 mL/kg) was intravenously administered through a tube catheter inserted into the vein. […] The separated plasma samples were stored in a frozen state until insulin analysis.
(§1) The frozen plasma samples were slowly thawed on ice. An ELISA test was performed according to a protocol provided with a Monkey insulin ELISA kit (LSBio, Cat No. LS-F10306). An insulin concentration was calculated by drawing a standard curve using the absorbance of the insulin standard and applying the absorbance of each measured sample thereto.
(In general: An ELISA detects its analyte on a solid surface through an enzyme-linked reagent.)

Data set [4] is described as follows: Intravenous glucose tolerance test (ivGTT) via intravenous administration, plasma insulin ELISA. In kind it is in vivo. The conditions noted are these: test substance 1 mg/mL/kg intravenously, maximum plasma insulin. The method, then:
Before the intravenous glucose tolerance test (ivGTT) was performed, monkeys to be used in the test were fasted for 16 hours. After the fasting, fasting blood sugar was measured on the day of the test, and the monkeys were grouped to minimize blood sugar deviation. Each of the monkeys was fixed on a correction chair and anesthetized. A tube catheter was inserted into a saphenous vein of the monkey immediately before glucose administration (0 minute), and the test substance (1 mg/mL/kg) was administered intravenously. After the drug administration, glucose (0.25 g/kg, 50% dextrose solution 0.5 mL/kg) was intravenously administered through the tube catheter inserted into the vein. […] The separated plasma samples were stored in a frozen state until insulin analysis.
as §1

Here are results for nine molecules from patent publication US11643403B2 (ILDONG PHARMACEUTICAL CO., LTD., priority 2019, dated 2023).

SMILES strings stand for the structures.

Sequence of hERG (human ether-a-go-go related gene) potassium channel (Q12809 whole entry): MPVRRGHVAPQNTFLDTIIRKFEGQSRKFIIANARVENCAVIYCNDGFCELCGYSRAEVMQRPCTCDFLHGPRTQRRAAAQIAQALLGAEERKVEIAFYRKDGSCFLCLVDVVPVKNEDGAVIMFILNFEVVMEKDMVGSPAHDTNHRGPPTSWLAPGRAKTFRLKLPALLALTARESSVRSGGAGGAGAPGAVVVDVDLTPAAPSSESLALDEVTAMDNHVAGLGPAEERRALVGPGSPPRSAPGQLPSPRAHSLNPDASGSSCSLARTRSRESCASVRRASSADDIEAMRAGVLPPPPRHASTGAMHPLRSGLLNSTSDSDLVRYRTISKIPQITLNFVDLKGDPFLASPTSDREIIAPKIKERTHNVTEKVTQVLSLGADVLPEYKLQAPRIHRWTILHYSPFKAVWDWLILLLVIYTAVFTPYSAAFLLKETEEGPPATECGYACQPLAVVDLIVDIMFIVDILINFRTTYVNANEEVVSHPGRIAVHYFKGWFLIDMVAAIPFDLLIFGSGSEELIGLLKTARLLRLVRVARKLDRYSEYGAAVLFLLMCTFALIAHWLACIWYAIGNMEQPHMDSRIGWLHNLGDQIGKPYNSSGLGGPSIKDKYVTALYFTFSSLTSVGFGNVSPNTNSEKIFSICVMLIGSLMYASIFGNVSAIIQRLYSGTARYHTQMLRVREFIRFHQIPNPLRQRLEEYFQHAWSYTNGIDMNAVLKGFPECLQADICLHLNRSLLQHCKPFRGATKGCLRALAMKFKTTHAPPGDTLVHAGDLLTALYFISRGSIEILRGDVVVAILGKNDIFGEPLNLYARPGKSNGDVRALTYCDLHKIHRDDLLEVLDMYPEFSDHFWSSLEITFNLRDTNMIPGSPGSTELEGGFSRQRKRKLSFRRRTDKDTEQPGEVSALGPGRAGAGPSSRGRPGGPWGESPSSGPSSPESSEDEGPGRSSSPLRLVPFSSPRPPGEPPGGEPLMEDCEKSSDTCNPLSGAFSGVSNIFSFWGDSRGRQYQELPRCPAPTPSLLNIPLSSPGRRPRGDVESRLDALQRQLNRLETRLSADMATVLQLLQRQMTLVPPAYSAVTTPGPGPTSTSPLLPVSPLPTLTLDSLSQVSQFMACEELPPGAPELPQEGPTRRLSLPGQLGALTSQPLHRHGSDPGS
Sequence of GLP-1 receptor CHO-K1 cells (P43220 24-463): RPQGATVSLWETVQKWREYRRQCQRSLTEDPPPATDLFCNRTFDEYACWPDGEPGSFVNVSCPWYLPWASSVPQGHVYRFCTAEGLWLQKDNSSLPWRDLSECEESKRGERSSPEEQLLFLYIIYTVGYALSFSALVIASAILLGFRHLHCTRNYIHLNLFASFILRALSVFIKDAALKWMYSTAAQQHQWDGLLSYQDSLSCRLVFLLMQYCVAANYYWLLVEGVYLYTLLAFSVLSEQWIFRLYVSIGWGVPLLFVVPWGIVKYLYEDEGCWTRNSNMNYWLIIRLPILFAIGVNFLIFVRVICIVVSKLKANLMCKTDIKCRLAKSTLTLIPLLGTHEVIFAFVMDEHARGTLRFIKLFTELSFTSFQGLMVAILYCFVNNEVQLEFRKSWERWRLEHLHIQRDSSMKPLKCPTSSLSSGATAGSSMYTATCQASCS

The EC50 is the concentration needed to bring the measured effect to its halfway point. What is called Emax is the greatest response seen or fitted, relative to the assay's reference. The term IC50 denotes the concentration at which inhibition is half-maximal. Consider `C[C@H]1CN(c2cccc(OCc3ccc(C#N)cn3)n2)CCN1Cc1nc2ccc(C(=O)O)cc2n1C[C@@H]1CCO1` [Example 1, 2-(((S)-4-(6-((5-cyanopyridin-2-yl)methoxy)pyridin-2-yl)-2-methylpiperazin-1-yl)methyl)-1-(((S)-oxetan-2-yl)methyl)-1H-benzo[d]imidazole-6-carboxylic acid], for which, in data set [1], the EC50 is less than 50 nM and the Emax came to 104%. The molecule further yielded a half-maximal inhibitory concentration (IC50) in data set [2] of more than 100000 nM. The “Monkey ivGTT (po) insulinmax” value in data set [3] is listed as “+ (a maximum insulin concentration is 50˜100 IU/mL)”. In addition, the “Monkey ivGTT (iv) insulinmax (IU/mL)” value in data set [4] is recorded as “++ (a maximum insulin concentration is greater than 250 IU/mL)”.
On to `N#Cc1ccc(COc2cccc(N3CCN(Cc4nc5ccc(C(=O)O)cc5n4C[C@@H]4CCO4)CC3)n2)nc1` [Example 2, (S)-2-((4-(6-((5-cyanopyridin-2-yl)methoxy)pyridin-2-yl)piperazin-1-yl)methyl)-1-(oxetan-2-ylmethyl)-1H-benzo [d]imidazole-6-carboxylic acid], for which, in data set [1], the EC50 is less than 50 nM and the maximal response (Emax) amounted to 108%. The IC50 in data set [2] is more than 100000 nM. The “Monkey ivGTT (po) insulinmax” value in data set [3] was “++ (a maximum insulin concentration is greater than 100 IU/mL)”.
In the case of `N#Cc1ccc(COc2cccc(N3CCN(Cc4nc5ccc(C(=O)O)nc5n4C[C@@H]4CCO4)CC3)n2)nc1` [Example 5, (S)-2-((4-(6-((5-cyanopyridin-2-yl)methoxy)pyridin-2-yl)piperazin-1-yl)methyl)-3-(oxetane-2-ylmethyl)-3H-imidazo[4,5-b]pyridine-5-carboxylic acid], in data set [1], the EC50 lay in the range of 50 to 100 nM and the maximal response (Emax) amounted to 111%.
`C[C@H]1CN(c2cccc(OCc3ccc(C#N)cn3)n2)CCN1Cc1nc2ccc(C(=O)O)nc2n1C[C@@H]1CCO1` [Example 6, 2-(((S)-4-(6-((5-cyanopyridin-2-yl)methoxy)pyridin-2-yl)-2-methylpiperazin-1-yl)methyl)-3-(((S)-oxetan-2-yl)methyl)-3H-imidazo[4,5-b]pyridine-5-carboxylic acid] showed an IC50 in data set [2] of more than 100000 nM. The “Monkey ivGTT (po) insulinmax” value in data set [3] is listed as “+ (a maximum insulin concentration is 50˜100 IU/mL)”. The “Monkey ivGTT (iv) insulinmax (IU/mL)” value in data set [4] was “++ (a maximum insulin concentration is greater than 250 IU/mL)”.
On to `O=C(O)c1ccc2nc(CN3CCC(c4cccc(OCc5ncc(Cl)cc5F)c4)CC3)n(C[C@@H]3CCO3)c2c1` [Example 10, (S)-2-((4-(3-((5-chloro-3-fluoropyridin-2-yl)methoxy)phenyl)piperidin-1-yl)methyl)-1-(oxetane-2-ylmethyl)-1H-benzo[d]imidazole-6-carboxylic acid], for which, in data set [1], the concentration for a half-maximal effect (EC50) was in the range of 50 to 100 nM and the maximal response (Emax) came out at 96.4%.
As for `N#Cc1ccc(COc2cccc(N3CCN(Cc4nc5ccc(C(=O)O)nc5n4C[C@@H]4CCO4)CC3)c2)nc1` [Example 13, (S)-2-((4-(3-((5-cyanopyridin-2-yl)methoxy)phenyl)piperazin-1-yl)methyl)-3-(oxetan-2-ylmethyl)-3H-imidazo[4,5-b]pyridine-5-carboxylic acid], in data set [1], the concentration for a half-maximal effect (EC50) is less than 50 nM and the Emax is 128%. Further, in data set [2], the IC50 was more than 100000 nM. Also, the “Monkey ivGTT (iv) insulinmax (IU/mL)” value in data set [4] is recorded as “+ (a maximum insulin concentration is 200˜250 IU/mL)”.
Consider `N#Cc1ccc(COc2cccc(N3CCN(Cc4nc5ccc(C(=O)O)cc5n4C[C@@H]4CCO4)CC3)c2)nc1` [Example 14, (S)-2-((4-(3-((5-cyanopyridin-2-yl)methoxy)phenyl)piperazin-1-yl)methyl)-1-(oxetan-2-ylmethyl)-1H-benzo[d]imidazole-6-carboxylic acid], for which, in data set [1], the EC50 is less than 50 nM and the Emax came to 91.4%. In data set [2], this molecule showed an IC50 of more than 100000 nM. Also, the “Monkey ivGTT (iv) insulinmax (IU/mL)” value in data set [4] is listed as “+ (a maximum insulin concentration is 200˜250 IU/mL)”.
For the molecule `O=C(O)c1ccc2nc(CN3CCN(c4cccc(OCc5ncc(Cl)cc5F)n4)CC3)n(C[C@@H]3CCO3)c2c1` [Example 16, (S)-2-((4-(6-((5-chloro-3-fluoropyridin-2-yl)methoxy)pyridin-2-yl)piperazin-1-yl)methyl)-1-(oxetan-2-ylmethyl)-1H-benzo[d]imidazole-6-carboxylic acid], in data set [1], the half-maximal effective concentration (EC50) was less than 50 nM and the Emax was determined as 102%. The same molecule returned an IC50 in data set [2] of more than 100000 nM.
As for `O=C(O)c1ccc2nc(CN3CCN(c4cccc(OCc5ccc(Cl)cn5)n4)CC3)n(C[C@@H]3CCO3)c2c1` [Example 17, (S)-2-((4-(6-((5-chloropyridin-2-yl)methoxy)pyridin-2-yl)piperazin-1-yl)methyl)-1-(oxetane-2-ylmethyl)-1H-benzo [d]imidazole-6-carboxylic acid], in data set [1], the half-maximal effective concentration (EC50) is less than 50 nM and the Emax was found to be 101%. This molecule also returned an IC50 in data set [2] of more than 100000 nM. Also, in data set [4], the “Monkey ivGTT (iv) insulinmax (IU/mL)” value is “+ (a maximum insulin concentration is 200˜250 IU/mL)”.
